The source made the active and inactive calls. Rule as the data show it, for most assays here: actives have a measured EC50 and inactives only a lower limit.
Assays:
[1] = target: Serine/threonine-protein phosphatase (Candida dubliniensis (strain CD36 / CBS 7987 / NCPF 3949 / NRRLY-17841) (Yeast), UniProt B9W6M3); assay: calcineurin pathway inhibitors in yeast reporter, dose response, S. cerevisiae, CDRE-lacZ, luminescence, secondary (AID 2388); format: functional, cell-based;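 also: yeast reporter cells carrying a calcineurin-responsive lacZ construct stimulated with calcium chloride; luminescent beta-galactosidase reporter signal in whole cells rather than isolated phosphatase activity; potency for inhibition where a drop in reporter signal means calcineurin blockade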
[2] = Luminescence Cell-Based Dose Retest to Confirm Inhibitors of Cancer Stem Cells. [Related pubchem assays (depositor defined):AID2717, AID2721]; format: functional; details: Homo sapiens
[3] = NIH-3T3 fibroblast cytotoxicity, dose response, cytotoxicity control, cell-based, fluorescence, Alamar Blue, secondary assay (AID 2327); format: functional;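 also: NIH-3T3 mouse fibroblasts cultured with fluconazole at 8 µg/mL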
[4] = C. albicans growth with fluconazole, confirmation, fluorescence, retest (AID 2467); format: functional, cell-based
[5] = target: ATP-dependent molecular chaperone HSP82 (Candida albicans (strain WO-1) (Yeast), UniProt C4YTQ8); assay: loss of DOC-induced GRE-beta-galactosidase reporter signal, dose response, Hsp90 inhibitor project, S. cerevisiae, luminescence (AID 2400); format: functional, cell-based;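 also: beta-galactosidase luminescence from glucocorticoid response element reporter as proxy for Hsp90 function; inhibitor potency where signal loss means Hsp90 inhibition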
[6] = target: Cysteine protease ATG4B (Homo sapiens, UniProt Q9Y4P1); format: functional;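 also: Fluorescence-based dose-response confirmation assay measuring inhibition of ATG4B activity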
[7] = target: Phospholipase A2 (Homo sapiens, UniProt P04054); format: functional;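 also: confirmatory dose-response counterscreen on phospholipase A2, testing hits that came from an ultra-high-throughput screen for ATG4B inhibitors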
[8] = test system: Vero; assay: cells; format: functional; details: Chlorocebus sabaeus
[9] = test system: BJ; assay: cells; format: functional, cell-based; details: Homo sapiens
[10] = cytotoxicity toward NIH3T3 fibroblasts, dose response, counter-screen, cell-based, ATP luminescence, mouse fibroblasts (AID 2010); format: functional;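 also: cells exposed to compound for about 90 hours before reading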
[11] = target: Hepatocyte nuclear factor 4-alpha (Homo sapiens, UniProt P41235); format: functional, cell-based;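 also: biochemical luminescence-based dose-response counterscreen measuring inhibition of HNF4 dimerization, run alongside a screen for blockers of ABHD5–perilipin-5 interaction; split luciferase complementation of HNF4 fusion proteins in cell lysate measuring dimerization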
[12] = target: NS3 (Hepatitis C virus, UniProt A3EZJ3); assay: PubChem AID 2173; design: species or system Hepacivirus hominis
[13] = cytotoxicity toward DRD oncogenic fibroblasts, dose response, cell-based, non-viral oncogenic, luminescence (AID 1934); format: functional; details: Homo sapiens
[14] = target: Heat shock protein HSP 90-alpha (Homo sapiens, UniProt P07900); format: functional, organism-based
[15] = inhibitors of firefly luciferase expression or activity, dose response, H4 neuroglioma cells, luminescence (AID 1990); format: functional, cell-based
[16] = test system: Streptococcus sp. 'group A'; assay: growth inhibition of control SK(-) GAS strain, dose response, counter-screen for streptokinase expression inhibitor project, luminescence, kanamycin, BacTiterGlo, confirmation (AID 1900); format: functional, organism-based
[17] = test system: Streptococcus; assay: Group A Streptococcus viability loss, dose response, counter-screen for streptokinase expression inhibitor project, luminescence, BacTiterGlo (AID 1915); format: functional, organism-based;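 also: potency for reduction of bacterial viability or growth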
[18] = test system: BJ; assay: cytotoxicity toward BJ-TERT-LT-ST fibroblasts, dose response, cell-based, RAS-independent, luminescence (AID 1935); format: functional; details: Homo sapiens;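 also: BJ fibroblasts immortalized with TERT plus LT and ST oncogenes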
[19] = Luminescence Cell-Based Dose Response HTS to Identify Inhibitors of 5'UTR Stem-Loop Driven Prion Protein mRNA Translation in H4 Neuroglioblastoma Cells. [Related pubchem assays: 1827 (Project Summary), 1813 (Primary HTS)]; format: functional
[20] = inhibitors of intracellular T. cruzi replication, confirmation, NIH3T3 host cells, beta-gal luminescence (AID 2044); format: functional, cell-based;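 also: intracellular parasites grown in NIH/3T3 mouse fibroblasts as host cells; luminescent beta-galactosidase reporter signal from transgenic T. cruzi replicating inside host cells; inhibitors lower the luminescence signal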
[21] = test system: BJ; assay: cytotoxicity toward BJ-TERT fibroblasts, dose response, cell-based, RAS-independent, luminescence (AID 1933); format: functional; details: Homo sapiens
[22] = inhibitors of SNCA 5'UTR-driven reporter translation, confirmation, H4 neuroglioma cells, luminescence (AID 1988); format: functional, cell-based
[23] = cells; format: functional, cell-based
[24] = test system: INS1; assay: beta cell apoptosis inhibitors, cytokine rescue, dose response, luminescence, retest (AID 449756); format: functional, cell-based; details: Rattus norvegicus;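 also: cell death triggered by IL-1 beta plus TNF-alpha plus IFN-gamma mixture; protective hits raise ATP signal compared with cytokine alone wells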
[25] = cytotoxicity in HEK-293T cells, dose response, cytotoxicity control for TCR NF-kB inhibitor project, luminescence, T-cell screen hits (AID 489026); format: functional, cell-based;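 also: cells exposed to compound about 14 hours before the viability readout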
[26] = cells; format: functional, cell-based; remark: listed apart in the source

Chain of Hepatocyte nuclear factor 4-alpha (P41235 whole entry, the tested form may be a part): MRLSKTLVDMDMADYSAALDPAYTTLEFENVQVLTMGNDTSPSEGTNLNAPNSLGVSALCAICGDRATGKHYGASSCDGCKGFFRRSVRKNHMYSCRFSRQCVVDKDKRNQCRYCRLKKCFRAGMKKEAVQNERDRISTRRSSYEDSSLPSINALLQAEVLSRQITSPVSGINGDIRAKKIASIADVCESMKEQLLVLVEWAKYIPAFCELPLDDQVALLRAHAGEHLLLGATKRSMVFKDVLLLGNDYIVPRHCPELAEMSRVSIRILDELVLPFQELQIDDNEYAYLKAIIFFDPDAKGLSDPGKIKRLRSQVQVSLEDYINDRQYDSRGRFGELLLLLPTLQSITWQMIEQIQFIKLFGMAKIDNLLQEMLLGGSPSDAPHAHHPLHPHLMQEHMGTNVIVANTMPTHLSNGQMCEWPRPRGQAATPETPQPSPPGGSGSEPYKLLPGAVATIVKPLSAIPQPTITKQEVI
Chain of ATP-dependent molecular chaperone HSP82 (C4YTQ8 whole entry): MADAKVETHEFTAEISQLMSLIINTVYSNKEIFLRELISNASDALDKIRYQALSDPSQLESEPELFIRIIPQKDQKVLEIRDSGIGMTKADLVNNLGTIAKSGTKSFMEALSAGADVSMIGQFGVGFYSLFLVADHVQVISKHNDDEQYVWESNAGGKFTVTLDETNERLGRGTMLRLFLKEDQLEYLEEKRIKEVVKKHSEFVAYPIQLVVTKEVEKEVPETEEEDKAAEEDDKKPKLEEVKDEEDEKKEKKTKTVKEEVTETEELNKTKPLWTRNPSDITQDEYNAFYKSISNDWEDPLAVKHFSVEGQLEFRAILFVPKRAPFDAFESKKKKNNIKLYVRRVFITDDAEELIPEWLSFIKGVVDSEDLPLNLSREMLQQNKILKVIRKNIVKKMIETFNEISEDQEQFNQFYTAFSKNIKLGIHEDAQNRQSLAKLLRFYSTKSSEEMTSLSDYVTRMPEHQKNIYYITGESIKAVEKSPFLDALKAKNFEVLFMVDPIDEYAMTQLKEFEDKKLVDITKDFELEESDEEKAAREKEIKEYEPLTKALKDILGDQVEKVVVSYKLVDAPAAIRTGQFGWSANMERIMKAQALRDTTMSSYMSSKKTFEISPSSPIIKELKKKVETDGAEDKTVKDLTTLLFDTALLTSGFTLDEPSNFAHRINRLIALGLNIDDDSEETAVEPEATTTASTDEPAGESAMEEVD
Chain of Cysteine protease ATG4B (Q9Y4P1 whole entry): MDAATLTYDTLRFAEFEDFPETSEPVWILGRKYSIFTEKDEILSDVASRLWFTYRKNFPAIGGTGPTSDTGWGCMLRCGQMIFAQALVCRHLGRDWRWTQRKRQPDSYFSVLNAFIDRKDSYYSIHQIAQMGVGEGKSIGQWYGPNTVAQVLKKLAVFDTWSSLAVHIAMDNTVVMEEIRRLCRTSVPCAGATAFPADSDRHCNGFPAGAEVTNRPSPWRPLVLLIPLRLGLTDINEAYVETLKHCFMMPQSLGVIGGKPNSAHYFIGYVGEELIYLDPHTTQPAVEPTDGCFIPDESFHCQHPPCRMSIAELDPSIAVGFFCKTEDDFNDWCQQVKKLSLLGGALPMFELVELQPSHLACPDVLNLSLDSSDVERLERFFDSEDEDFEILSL
Chain of Phospholipase A2 (P04054 whole entry): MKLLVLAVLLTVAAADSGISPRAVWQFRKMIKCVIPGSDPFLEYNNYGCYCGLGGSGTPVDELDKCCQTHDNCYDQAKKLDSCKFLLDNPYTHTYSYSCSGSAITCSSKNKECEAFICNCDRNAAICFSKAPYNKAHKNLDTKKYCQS
Chain of Serine/threonine-protein phosphatase (B9W6M3 whole entry): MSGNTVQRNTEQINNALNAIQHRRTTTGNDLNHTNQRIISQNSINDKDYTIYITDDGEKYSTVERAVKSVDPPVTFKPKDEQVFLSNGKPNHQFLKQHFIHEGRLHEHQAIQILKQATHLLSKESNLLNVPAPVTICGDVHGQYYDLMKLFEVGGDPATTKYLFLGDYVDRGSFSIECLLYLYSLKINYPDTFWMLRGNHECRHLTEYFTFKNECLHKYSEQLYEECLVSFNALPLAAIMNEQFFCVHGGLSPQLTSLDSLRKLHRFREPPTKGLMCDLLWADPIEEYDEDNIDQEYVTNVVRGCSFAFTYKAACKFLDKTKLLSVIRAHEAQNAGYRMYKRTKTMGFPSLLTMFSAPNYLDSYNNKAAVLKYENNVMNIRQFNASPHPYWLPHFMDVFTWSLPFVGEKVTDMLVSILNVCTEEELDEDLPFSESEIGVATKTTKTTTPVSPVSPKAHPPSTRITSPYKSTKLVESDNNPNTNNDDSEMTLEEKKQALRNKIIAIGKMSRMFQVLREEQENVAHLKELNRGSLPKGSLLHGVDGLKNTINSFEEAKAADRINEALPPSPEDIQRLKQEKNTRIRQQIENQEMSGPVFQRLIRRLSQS
Chain of NS3 (A3EZJ3 whole entry): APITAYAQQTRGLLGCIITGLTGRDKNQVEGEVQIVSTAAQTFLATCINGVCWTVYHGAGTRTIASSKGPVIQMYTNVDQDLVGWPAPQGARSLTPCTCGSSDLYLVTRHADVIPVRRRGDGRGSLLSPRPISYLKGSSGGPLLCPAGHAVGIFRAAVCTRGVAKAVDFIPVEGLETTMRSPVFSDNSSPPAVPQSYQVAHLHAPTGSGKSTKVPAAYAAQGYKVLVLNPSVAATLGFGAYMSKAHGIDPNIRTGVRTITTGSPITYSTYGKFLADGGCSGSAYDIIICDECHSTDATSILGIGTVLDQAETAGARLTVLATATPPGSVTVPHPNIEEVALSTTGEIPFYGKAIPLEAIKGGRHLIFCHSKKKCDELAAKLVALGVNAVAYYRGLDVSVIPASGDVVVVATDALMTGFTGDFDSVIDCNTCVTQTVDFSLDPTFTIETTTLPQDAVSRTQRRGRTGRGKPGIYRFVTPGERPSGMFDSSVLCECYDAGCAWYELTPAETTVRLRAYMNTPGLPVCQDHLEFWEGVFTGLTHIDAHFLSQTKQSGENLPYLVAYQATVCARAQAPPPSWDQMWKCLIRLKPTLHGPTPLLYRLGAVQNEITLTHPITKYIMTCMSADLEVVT

Cc1cccc(C(=O)NNC2=C(C(=O)C(F)(F)F)CCC2)c1O
EC50 [1]: > 180 µM (inactive) | AC50 [2]: 3.16 µM (active) | EC50 [3]: > 160 µM (inactive) | EC50 [4]: 0.53 µM (active) | EC50 [5]: 35.6 µM (active)

CCOC(=O)c1c(C)[nH]c(C(=O)COC(=O)COc2ccccc2C=O)c1C
IC50 [6]: 10.5 µM (active) | IC50 [7]: 9.64 µM (active)

CCOc1ccc(Oc2c(/C=N/NC(=O)COc3ccccc3OC)c(C)nn2-c2ccccc2)cc1
CC50 [8]: > 25 µM (active)

Cc1ccc(C)c(/C=C/C(=O)c2ccccc(=O)c2O)c1
EC50 [9]: 14.4 µM (active) | EC50 [10]: 8.18 µM (active) | IC50 [11]: 6.56 µM (active) | IC50 [12]: 2.52 µM (active) | EC50 [13]: 56.8 µM (inconclusive) | AC50 [14]: 2.42 µM (active) | EC50 [3]: > 150 µM (inactive) | EC50 [15]: 13.9 µM (active) | EC50 [4]: 1.47 µM (active) | EC50 [16]: 1.41 µM (active) | EC50 [17]: 5 µM (active) | EC50 [18]: > 150 µM (not active) | EC50 [19]: > 120 µM (not active) | EC50 [20]: 2.29 µM (active) | EC50 [21]: 17.2 µM (inconclusive) | EC50 [22]: 12.7 µM (active)

CCC(=O)NC(c1cccs1)c1ccc2cccnc2c1O (stereo not drawn)
EC50 [10]: 1.48 µM (active) | EC50 [23]: 8.02 µM (active) | AC50 [24]: 0.86 µM (active) | IC50 [25]: > 80 µM (inactive) | AC50 [14]: 7.9 µM (active) | EC50 [3]: 3.59 µM (active) | EC50 [26]: > 350 µM (not active) | EC50 [4]: 1.39 µM (active) | EC50 [20]: 0.48 µM (active)
